Measured values reported in patent US20240208997A1, “CYCLIC BENZIMIDAZOLE DERIVATIVES AS CGAS INHIBITORS” (Boehringer Ingelheim International GmbH, priority 2022, published 2024).
Like-named read-outs stand apart in the source and are kept apart here.

Assays:
[1] = test system: IFN induction in cGAMP-stimulated THP1 cells; settings: Table 4; compounds of PCT/EP2022/062480 and PCT/EP2022/062496 and their methyl ester prodrugs; cited from earlier work
[2] = test system: IFN induction in dsDNA-stimulated human whole blood; settings: Table 4; compounds of PCT/EP2022/062480 and PCT/EP2022/062496 and their methyl ester prodrugs; read-out: hWB IC50; cited from earlier work
cGAS [3] = molecular target: T1, cGAS (Homo sapiens, UniProt Q8N884); set-up: HumancGAS (amino acid 1-522) with an N-terminal 6×-His-tag and SUMO-tag; 6xHis (N); SUMO (N); made in house; host or cells: E. coli BL21(DE3) pLysS; settings: Table 4; compounds of PCT/EP2022/062480 and PCT/EP2022/062496 and their methyl ester prodrugs; read-out: hcGAS IC50; cited from earlier work
[4] = test system: IFN induction in virus-stimulated THP1 cells; settings: Table 4; compounds of PCT/EP2022/062480 and PCT/EP2022/062496 and their methyl ester prodrugs; read-out: THP1(vir) IC50; cited from earlier work
[5] = test system: IFN induction in virus-stimulated THP1 cells; assay: Human cGAS cell assay, virus-stimulated THP1-Dual cells (THP1(vir) IC50); format: cell-based
From the text: (§1) 6.2 Method: Human cGAS Cell Assay and cGAMP Stimulated Counter Cell Assay (THP1(vir) IC50 and THP1(cGAMP) IC50)
THP1-Dual™ cells (InvivoGen #thpd-nfis) expressing IRF dependent Lucia luciferase reporter were used as basis for both assays. For the detection of cellular cGAS activity cells were stimulated by a baculovirus (pFastbac-1, Invitrogen, no coding insert) infection that delivers the cGAS enzyme stimulating double-stranded DNA (measurement of THP1(vir) IC50).
(§2) Pathway activity was monitored by measuring the Lucia luciferase activity induced by either DNA stimulated cGAS enzyme activity (measurement of THP1(vir) IC50) or by cGAMP directly (measurement of THP1(cGAMP) IC50, counter assay).
(§3) Compounds were delivered in 10 mM DMSO solution, serially diluted and transferred to the 384 well assay plate (Greiner #781201) using an Echo acoustic dispenser. Typically, 8 concentrations were used with the highest concentration at 10 μM in the final assay volume followed by ^˜1:5 dilution steps. DMSO concentration was set to 1% in the final assay volume. The 384 well assay plate contained […] (column 1-22), and DMSO in column 23 and 24.
(§4) Cells, cultivated according to manufacturer conditions, were harvested by centrifugation at 300 g/10 min and were then resuspended and diluted to 1.66E5 cells/ml in fresh cell culture medium (RPMI 1640 (Gibco #A10491-01), 10% FCS (Gibco #10500), 1× GlutaMax (Gibco #35050-061), 1× Pen/Strep solution (Gibco #15140-122), 100 μg/ml Normocin (InvivoGen #ant-nr), 100 μg/ml Zeocin (InvivoGen #ant-zn), 10 μg/ml Blasticidin S (Life Technologies #A11139-03)). The baculovirus solution was then added 1:200 (have varied according to virus batch) to the cells (measurement of THP1(vir) IC50).
(§5) 30 μL of the cell/virus-mix were added to each well of the compound plate from column 1-23 via MultiDrop Combi dispenser (5000 cells/well). In column 24, 30 μl/5000 cells/well without virus were added as a low control.
(§6) The plates were then incubated for 18 h at 37° C. in a humidified incubator.
(§7) Following that, 15 μL of QuantiLuc detection reagent (InvivoGen #rep-qlcg5) were added to each well using a MultiDrop Combi. Measurement was done immediately after the addition using an EnVision reader (US-luminescence read-mode).
(§8) Data Evaluation and Calculation:
(§9) For data evaluation and calculation, the measurement of the low control was set as 0% control and the measurement of the high control was set as 100% control. The IC50 values were calculated using the standard 4 parameter logistic regression formula. Calculation: [y=(a−d)/(1+(x/c)^b)+d], a=low value, d=high value; x=conc M; c=IC50 M; b=slope

cGAS [6] = molecular target: T1, cGAS; settings: groups as on page 44/45 of WO 2020/142729; read-out: biochemical (in vitro) IC50-value, group; cited from earlier work
[7] = test system: IFN induction in cGAMP-stimulated THP1 cells; assay: cGAMP stimulated counter cell assay in THP1-Dual cells (THP1(cGAMP) IC50); format: cell-based, human; settings: Homo sapiens, read-out: THP1(cGAMP) IC50
From the text: as §1
For the counter assay, cells were stimulated by cGAMP (SigmaAldrich #SML1232) to activate the identical pathway independent and directly downstream of cGAS (measurement of THP1(cGAMP) IC50).
as §2, §3, §4, §5, §6, §7, §8, §9

THP-1 = settings: page 67 and 68, Table 3 of WO 2022/174012; read-out: cellular IC50-value (IFNβ ELISA stimulated with THP-1), group; cited from earlier work
cGAS [8] = molecular target: T1, cGAS; settings: page 65, Table 2 of WO 2022/174012; read-out: enzymatic IC50-value, group; cited from earlier work
[9] = THP-1, Table 2, compounds of WO 2020/142729, read-out: THP1(vir) IC50
[10] = THP-1, Table 2, compounds of WO 2020/142729

T1 sequence (Q8N884 whole entry): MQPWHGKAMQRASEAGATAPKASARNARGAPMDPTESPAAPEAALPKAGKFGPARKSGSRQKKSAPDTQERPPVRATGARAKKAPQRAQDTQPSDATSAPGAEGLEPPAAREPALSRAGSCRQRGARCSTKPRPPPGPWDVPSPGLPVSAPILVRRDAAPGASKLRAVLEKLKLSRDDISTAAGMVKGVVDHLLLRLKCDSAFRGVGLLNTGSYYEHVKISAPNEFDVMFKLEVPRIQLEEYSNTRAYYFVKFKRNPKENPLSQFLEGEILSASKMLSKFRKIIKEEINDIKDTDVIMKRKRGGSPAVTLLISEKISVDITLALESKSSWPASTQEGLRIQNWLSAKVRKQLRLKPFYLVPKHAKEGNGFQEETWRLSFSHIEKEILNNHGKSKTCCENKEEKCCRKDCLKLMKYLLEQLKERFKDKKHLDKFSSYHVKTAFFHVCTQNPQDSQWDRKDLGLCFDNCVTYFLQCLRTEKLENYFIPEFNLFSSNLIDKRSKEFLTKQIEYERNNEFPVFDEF

COC(=O)[C@@H]1C[C@H](Oc2ncc(Br)cc2N2CCOC3(COC3)[C@@H]2C)CN1c1nc(C(F)(F)F)nc2c1oc1ccccc12 [P02 of PCT/EP2022/062 480]
IC50 [1]: 17.1 µM | IC50 [2]: 5.33 µM | IC50 (cGAS [3]): > 9.95 µM | IC50 [4]: 0.444 µM

COC(=O)[C@@H]1C[C@H](Oc2ncc(Cl)cc2[C@@]2(OC)CC(C)(C)S(=O)(=O)C[C@@H]2C)CN1c1nc(C(F)F)nc2c1oc1ccccc12 [P03 of PCT/ EP2022/062496]
IC50 [1]: 20.6 µM | IC50 [2]: 1.99 µM | IC50 [4]: 0.202 µM

CO[C@]1(c2cc(Cl)cnc2O[C@H]2C[C@@H](C(=O)O)N(c3nc(C(F)F)nc4c3oc3ccccc34)C2)CC(C)(C)S(=O)(=O)C[C@@H]1C [Ex. 1.05 of PCT/ EP2022/062496]
IC50 [1]: 13.2 µM | IC50 [2]: 0.135 µM | IC50 [4]: 0.044 µM

Cc1nc(N2C[C@@H](CC(=O)Nc3ccncc3)C[C@H]2C(=O)O)c2oc3ccccc3c2n1 [Example 28, reference compound]
IC50 [5, 9]: > 32 µM

COC(=O)[C@@H]1C[C@H](Oc2ncc(Cl)cc2[C@@]2(F)CCS(=O)(=O)C[C@@H]2C)CN1c1nc(C(F)F)nc2c1oc1ccccc12 [P02 of PCT/ EP2022/062496]
IC50 [1]: > 16.6 µM | IC50 [2]: 0.14 µM | IC50 (cGAS [3]): > 9.95 µM | IC50 [4]: 0.029 µM

Cc1nc(N2C[C@@H](Cc3nn[nH]n3)C[C@H]2C(=O)O)c2oc3ccccc3c2n1 [Example 25, reference compound]
IC50 (cGAS [6]): < 0.1 µM | IC50 [5, 9]: > 17 µM | IC50 ([5]; THP-1, running text, read-out: THP1(vir) IC50): 17 µM | IC50 [7, 10]: > 17 µM

CC(C)(C(=O)N[C@H]1C[C@@H](C(=O)O)N(c2nc(C(F)(F)F)nc3c2oc2ccccc23)C1)c1cn[nH]c1 [Example 58, reference compound]
IC50 [5, 9]: 21 µM

Cc1nc(N2CCC[C@H]2C(=O)O)c2oc3ccccc3c2n1 [Example 15, reference compound]
IC50 [5, 9]: > 17 µM | IC50 [7, 10]: > 17 µM

C[C@@H]1N(c2cccnc2O[C@H]2C[C@@H](C(=O)O)N(c3nc(C(F)F)nc4c3oc3ccccc34)C2)CCOC12COC2 [Ex. 4.04 of PCT/EP2022/062 480]
IC50 [1]: > 16.6 µM | IC50 [2]: 0.077 µM | IC50 [4]: 0.386 µM

COc1ncccc1-c1cnc(O[C@H]2C[C@@H](C(=O)O)N(c3nc(C(F)(F)F)nc4c3oc3ccccc34)C2)c(N2CCOC3(COC3)[C@@H]2C)c1 [Ex. 3.14 of PCT/EP2022/062 480]
IC50 [1]: 7.83 µM | IC50 [2]: 0.026 µM | IC50 [4]: 0.01 µM

C#Cc1cnc(O[C@H]2C[C@@H](C(=O)O)N(c3nc(C(F)(F)F)nc4c3oc3ccccc34)C2)c(N2CCOC3(COC3)[C@@H]2C)c1 [Ex. 1.12 of PCT/EP2022/062 480]
IC50 [1]: 11.9 µM | IC50 [2]: 0.015 µM | IC50 [4]: 0.007 µM

C[C@H]1CS(=O)(=O)CC[C@]1(F)c1cc(Cl)cnc1O[C@H]1C[C@@H](C(=O)O)N(c2nc(C(F)F)nc3c2oc2ccccc23)C1 [Ex. 1.13 of PCT/ EP2022/062496]
IC50 [1]: 22.5 µM | IC50 [2]: 0.006 µM

C#Cc1cnc(O[C@H]2C[C@@H](C(=O)O)N(c3nc(C(F)(F)F)nc4c3oc3ccccc34)C2)c([C@@]2(F)CCS(=O)(=O)C[C@@H]2C)c1 [Ex. 2.12 of PCT/ EP2022/062496]
IC50 [1]: 21.8 µM | IC50 [2]: 0.008 µM

Cc1nc(N2C[C@@H](CC(=O)Nc3ccc(-c4ccccc4)cc3)C[C@H]2C(=O)O)c2oc3ccccc3c2n1 [Compound 5, reference compound]
IC50 (THP-1): < 1 µM | IC50 ([5]; THP-1, Table 3, Compound No. 5 of WO 2022/174012, read-out: THP1(vir) IC50): > 10 µM | IC50 ([7]; THP-1, Table 3, Compound No. 5 of WO 2022/174012): > 10 µM | IC50 (cGAS [8]): 0.05 to 0.1 µM

COC(=O)[C@@H]1C[C@H](Oc2ncc(-c3cccnc3OC)cc2N2CCOC3(COC3)[C@@H]2C)CN1c1nc(C(F)(F)F)nc2c1oc1ccccc12 [P04 of PCT/EP2022/062 480]
IC50 [1]: > 16.6 µM | IC50 [2]: 2.75 µM | IC50 (cGAS [3]): > 9.95 µM | IC50 [4]: 0.067 µM

Cc1nc(N2C[C@@H](Nc3ccncc3)C[C@H]2C(=O)O)c2oc3ccccc3c2n1 [Example 38, reference compound]
IC50 [5, 9]: > 17 µM | IC50 [7, 10]: > 17 µM

COC(=O)[C@@H]1C[C@H](Oc2ncccc2N2CCOC3(COC3)[C@@H]2C)CN1c1nc(C(F)F)nc2c1oc1ccccc12 [P01 of PCT/EP2022/062 480]
IC50 [1]: 26.1 µM | IC50 [2]: 1.31 µM | IC50 (cGAS [3]): > 9.96 µM | IC50 [4]: 0.358 µM

C[C@@H]1N(c2cc(Br)cnc2OC2C[C@@H](C(=O)O)N(c3nc(C(F)(F)F)nc4c3oc3ccccc34)C2)CCOC12COC2 (some centres unmarked) [Ex. 1.10 of PCT/EP2022/062 480]
IC50 [1]: 16.1 µM | IC50 [2]: 0.033 µM | IC50 (cGAS [3]): 0.005 µM | IC50 [4]: 0.091 µM

C#Cc1cnc(O[C@H]2C[C@@H](C(=O)OC)N(c3nc(C(F)(F)F)nc4c3oc3ccccc34)C2)c([C@@]2(F)CCS(=O)(=O)C[C@@H]2C)c1 [P01 of PCT/EP2022/062 496]
IC50 [1]: > 16.6 µM | IC50 [2]: 0.067 µM | IC50 [4]: 0.011 µM

C#Cc1cnc(O[C@H]2C[C@@H](C(=O)OC)N(c3nc(C(F)(F)F)nc4c3oc3ccccc34)C2)c(N2CCOC3(COC3)[C@@H]2C)c1 [P03 of PCT/EP2022/062 480]
IC50 [1]: 22.8 µM | IC50 [2]: 1.09 µM | IC50 [4]: 0.188 µM
